The results in this text go back to patent publication US6686394B1, “Aryl-chloro-ethyl ureas” (Sovar, Societe en Commandite, priority 1999, dated 2004).

What all share (experiment): Cytotoxicity assay C50/G50, MTT or resazurin (Example 16)
For orientation: Alamar Blue is a resazurin reagent that responds to reducing activity.

The test system of assay [1] is HT-29. The assay is classed as cell-based, human. The conditions noted are these: for IC50: Homo sapiens, day-3, read-out: G50 (concentration inhibiting cell growth by 50%); for C50 (concentration needed to kill 50% of the cellular population present at the beginning): day-3. On the procedure:
(§1) Cell culture. Tumor cell lines (B16-F0, Caco-2, DU-145, HT-29, MDA-MB-231 and other cell lines described so far in the patent application) were obtained from the American Type Culture Collection (ATCC HTB-26; Bethesda, Md.). Cells were grown in RPMI 1640 medium supplemented with 10% fetal bovine serum (Hyclone, Road Logan, Utah) and were cultured in a humidified atmosphere at 37° C. in 5% CO2.
(§2) Drugs: All drugs were dissolved in DMSO and the final concentration of DMSO in the culture medium was maintained at 0.5% (v/v).
(§3) Cytotoxiciy assays. At day-1, tumor cells in suspension in 100 μl were plated in microtiter plates (96 wells). On day-0, tumor cells were treated by addition of escalating concentrations of the drug (100 μl solution). On that day, the number of living cells was determined in wells that were untreated. This was performed in order to be able to evaluate the toxic concentration of the drug needed to kill 50% of the cellular population present at the beginning of the experiments. This value is represented by C50 in the table. At day-3, the number of living cells is determined using either MTT or resazurin assays. Growth inhibition activity of these compounds was expressed as the concentration of CAU inhibiting cell growth by 50% G50 in the following table
(§4) The MTT assay was as described above in Example 1. The Resazurin assay was performed as follows:
(§5) Aspirate the supernatant (cell suspension: centrifuge first)
(§6) Add 100 μL NaCl 0.9% (saline)
(§7) Add 50 μL RZ (resazurin 125 μg/ml/PBS: RPMI without FBS; 1:4) Incubate at 37° C.
(§8) Collect fluorescence data at different time.

The subject of assay [2] is MDA-MB-231. Format: cell-based, human. The conditions noted are these: for IC50: Homo sapiens, day-3, read-out: G50 (concentration inhibiting cell growth by 50%); for C50 (concentration needed to kill 50% of the cellular population present at the beginning): day-3. How it is done: as §1, §2, §3, §4, §5, §6, §7, §8
Assay [3] relates to B16-F0. The assay is classed as cell-based. The conditions noted are these: for IC50: Mus musculus, B16F0, day-3, read-out: G50 (concentration inhibiting cell growth by 50%); for C50 (concentration needed to kill 50% of the cellular population present at the beginning): day-3. How it is done:
as §1, §2, §3, §4, §5, §6, §7, §8

Assay [4] relates to Caco-2. The assay is classed as cell-based. The conditions noted are these: for IC50: Homo sapiens, day-3, read-out: G50 (concentration inhibiting cell growth by 50%); for C50 (concentration needed to kill 50% of the cellular population present at the beginning): day-3. On the procedure:
as §1, §2, §3, §4, §5, §6, §7, §8

The test system of assay [5] is DU-145. The assay is classed as cell-based. The conditions noted are these: for IC50: Homo sapiens, day-3, read-out: G50 (concentration inhibiting cell growth by 50%); for C50 (concentration needed to kill 50% of the cellular population present at the beginning): day-3. On the procedure: as §1, §2, §3, §4, §5, §6, §7, §8

As to `CCCCCCc1ccc(NC(=O)NC(CCl)CCC)cc1` (racemic) [Example 14], the IC50 in assay [1] is 10.7 µM; in assay [2], 18.9 µM; in assay [3], 15.8 µM; in assay [4], 12.7 µM; in assay [5], 10.9 µM. Also, the “C50 (concentration needed to kill 50% of the cellular population present at the beginning)” value was 20.3 µM in assay [1]; 32.3 µM in assay [2]; 21.3 µM in assay [3]; 21.1 µM in assay [4]; 19.6 µM in assay [5].

On to `C[C@H](CCl)NC(=O)Nc1ccc(C2CCCCC2)cc1` [Example 9], for which the IC50 in assay [1] is 19 µM; in assay [2], 27.5 µM; in assay [3], 15.4 µM; in assay [4], 8.6 µM; in assay [5] it was 7.8 µM. Moreover, the “C50 (concentration needed to kill 50% of the cellular population present at the beginning)” value in assay [1] is 28.1 µM; in assay [2] it was 42.9 µM; in assay [3], 17.4 µM; in assay [4] it was 14.7 µM; in assay [5], 27.6 µM.

In the case of `CC[C@H](CCl)NC(=O)Nc1ccc(C2CCCCC2)cc1` [Example 12], the IC50 in assay [1] amounted to 13.6 µM; in assay [2], 19.6 µM; in assay [3] it was 17.3 µM; in assay [4] it was 10 µM; in assay [5], 7.3 µM. In addition, the “C50 (concentration needed to kill 50% of the cellular population present at the beginning)” value in assay [1] was 22.8 µM; in assay [2], 40.3 µM; in assay [3], 21.5 µM; in assay [4], 17.7 µM; in assay [5], 22.2 µM.

With `C[C@@H](CCl)NC(=O)Nc1ccc(C2CCCCC2)cc1` [Example 8], the IC50 is 17.1 µM in assay [1]; 27.6 µM in assay [2]; 21.8 µM in assay [3]; 15.4 µM in assay [4]; 8.6 µM in assay [5]. Besides, the “C50 (concentration needed to kill 50% of the cellular population present at the beginning)” value amounted to 23.9 µM in assay [1]; 42.3 µM in assay [2]; 22.1 µM in assay [3]; 20.3 µM in assay [4]; 25.2 µM in assay [5].

With `CCCCCCc1ccc(NC(=O)N[C@H](CC)CCl)cc1` [Example 10], the IC50 in assay [1] was found to be 20.8 µM; in assay [2], 18 µM; in assay [3], 18.8 µM; in assay [4], 10.2 µM; in assay [5] it was 7.4 µM. The “C50 (concentration needed to kill 50% of the cellular population present at the beginning)” value turned out to be 36.8 µM in assay [1]; 40.6 µM in assay [2]; 24.9 µM in assay [3]; 13.7 µM in assay [4]; 27.2 µM in assay [5].

`CCCCCCc1ccc(NC(=O)N[C@@H](C)CCl)cc1` [Example 7]: the IC50 in assay [1] amounted to 5.1 µM; in assay [2], 11.7 µM; in assay [3], 16.3 µM; in assay [4], 12.6 µM; in assay [5], 6.3 µM. Moreover, the “C50 (concentration needed to kill 50% of the cellular population present at the beginning)” value in assay [1] came to 12.8 µM; in assay [2] it was 31.9 µM; in assay [3], 18.2 µM; in assay [4], 21.1 µM; in assay [5], 11.8 µM.

In the case of `CC[C@@H](CCl)NC(=O)Nc1ccc(C2CCCCC2)cc1` [Example 13], the IC50 in assay [1] amounted to 9.8 µM; in assay [2] it was 16.3 µM; in assay [3], 15.5 µM; in assay [4], 9.9 µM; in assay [5], 6.9 µM. The “C50 (concentration needed to kill 50% of the cellular population present at the beginning)” value was 16.3 µM in assay [1]; 32.5 µM in assay [2]; 17.7 µM in assay [3]; 15.6 µM in assay [4]; 16.2 µM in assay [5].

Take `CCCCCCc1ccc(NC(=O)N[C@H](C)CCl)cc1` [Example 6]: the IC50 amounted to 32.3 µM in assay [1]; 31.5 µM in assay [2]; 26.3 µM in assay [3]; 35.8 µM in assay [4]; 18.9 µM in assay [5]. Further, the “C50 (concentration needed to kill 50% of the cellular population present at the beginning)” value in assay [1] turned out to be 44.5 µM; in assay [2], 43.3 µM; in assay [3] it was 31.3 µM; in assay [4] it was 44.2 µM; in assay [5], 39.5 µM.

For `CCCCCCc1ccc(NC(=O)N[C@@H](CC)CCl)cc1` [Example 11], the IC50 in assay [1] is 13.1 µM; in assay [2], 15.1 µM; in assay [3], 14.1 µM; in assay [4], 7.5 µM; in assay [5], 4.6 µM. The “C50 (concentration needed to kill 50% of the cellular population present at the beginning)” value in assay [1] is 20.8 µM; in assay [2] it was 30.1 µM; in assay [3], 18.3 µM; in assay [4], 10.9 µM; in assay [5], 15.8 µM.
